For this assay, the target named is human PAD4 (Homo sapiens (Human), UniProt Q9UM07). Nature of the assay: In Vitro PAD4 BAEE Biochemical Assay. Conditions: geometric mean of multiple experiments. Here is the method:
The PCR product was ligated into linearized pET-SUMO vector (Invitrogen, Carlsbad, CA), which is part of the Champion™ pET SUMO Protein Expression System. After sequence verification for the correct orientation, the pET-SUMO-hPAD4 expression plasmid was transformed into BL21(DE3) cells.
E. Coli BL21(DE3) cells were inoculated in LB medium with kanamycin at 37° C. until A600 nm reached about 0.5. Protein expression was induced by addition of 0.5 mM IPTG (final) and continued overnight at 16° C. at 220 rpm.
Cells were harvested by centrifugation at 5000 rpm for 10 minutes at 4° C. The pellet was resuspended in 300 ml lysis buffer (20 mM Tris-HCl, pH 8.0, 1 mM EDTA, 500 mM NaCl, 1 mM (tris(2-carboxyethyl)phosphine) (TCEP), 10% glycerol, and 1% Triton X100 and EDTA free protease inhibitor) and lysed by 3× passage through a microfluidizer (Microfluidics, Newton, MA) at 18,000 psi. The cell lysate was clarified by centrifugation at 30,000 rpm for 60 minutes at 4° C. The supernatant was applied to a 5 ml Ni-HP (GE HealthCare Cat #17524701) column preequilibrated in Ni-A buffer (20 mM Tris-HCl, pH 8.0, 20 mM Imidazole, 1 mM TCEP, 10% glycerol, and 400 mM NaCl). Bound protein was eluted with a 0-100% linear gradient of 100 mL Ni-B buffer (Ni A buffer+0.5 M Imidazole).
The His-Sumo tag was cleaved using sumo protease (Thermo Fisher Cat #: 12588018) while dialyzing in buffer (20 mM Tris-HCl, pH 8.0, 1 mM EDTA, 500 mM NaCl, 1 mM TCEP, 10% glycerol). The protein was then reloaded onto a Ni-HP column for a reverse purification step and recovered in flow through fraction. The protein with His-Sumo tag removed was then polished using a 16/60 Superdex-200 gel filtration column with gel filtration buffer (20 mM Tris pH 8.0, NaCl 400 mM and 1 mM TCEP). The fractions containing the protein were pulled and frozen at −80° C.
In Vitro PAD4 BAEE Biochemical Assay
The enzymatic activity of human PAD4 was monitored in a biochemical assay in the presence or absence of compounds using the small peptidyl arginine mimic BAEE (Nα-Benzoyl-L-arginine ethyl ester hydrochloride) as substrate. PAD4 activity led to deimination of BAEE and release of ammonia. Levels of ammonia were monitored by using an amine coupling reaction and were indicative of PAD4 enzymatic activity.
One hundred nanoliters of test compounds dissolved in DMSO at various concentrations were dispensed into a 384-well black OptiPlate using a Labcyte Echo instrument. Ten microliters of a solution of recombinant PAD4 and calcium chloride diluted in PAD4 assay buffer (50 mM MOPS [3-(N-morpholino) propanesulfonic acid], pH 7.6; 50 mM sodium chloride; 0.05% Tween-20; 2 mM dithiothreitol) was added to the compound-containing plate and was incubated for 30 minutes at 25° C. Ten microliters of a solution of BAEE (Sigma-Aldrich #B4500) diluted in PAD4 assay buffer was then added to start the reaction. Final concentrations were 5 nM PAD4, 2 mM calcium chloride, and 3 mM BAEE. The reaction mixture was incubated at 25° C. for 2 hours and was stopped with the addition of 10 microliters of a solution of 75 mM EDTA (Ethylenediaminetetraacetic acid) in PAD4 assay buffer. Thirty microliters of detection solution (5 mM o-phthalaldehyde, 50 mM MOPS [3-(N-morpholino) propanesulfonic acid], pH 7.6; 50 mM sodium chloride; 0.05% Tween-20; 5 mM dithiothreitol) was then added and the reaction was incubated for 1 hour at 25° C. The level of fluorescent thiol-substituted isoindole resulting from the reaction of ammonia, o-phthalaldehyde, and dithiothreitol was measured on an Envision plate reader (PerkinElmer) with 405 nm excitation and 535 nm emission.

[1] abbreviates: human PAD4, BAEE substrate, 5 nM PAD4, 2 mM calcium chloride, 3 mM BAEE.

pIC50: −log10 of the molar value.

Sequence of human PAD4 (Q9UM07 2-663): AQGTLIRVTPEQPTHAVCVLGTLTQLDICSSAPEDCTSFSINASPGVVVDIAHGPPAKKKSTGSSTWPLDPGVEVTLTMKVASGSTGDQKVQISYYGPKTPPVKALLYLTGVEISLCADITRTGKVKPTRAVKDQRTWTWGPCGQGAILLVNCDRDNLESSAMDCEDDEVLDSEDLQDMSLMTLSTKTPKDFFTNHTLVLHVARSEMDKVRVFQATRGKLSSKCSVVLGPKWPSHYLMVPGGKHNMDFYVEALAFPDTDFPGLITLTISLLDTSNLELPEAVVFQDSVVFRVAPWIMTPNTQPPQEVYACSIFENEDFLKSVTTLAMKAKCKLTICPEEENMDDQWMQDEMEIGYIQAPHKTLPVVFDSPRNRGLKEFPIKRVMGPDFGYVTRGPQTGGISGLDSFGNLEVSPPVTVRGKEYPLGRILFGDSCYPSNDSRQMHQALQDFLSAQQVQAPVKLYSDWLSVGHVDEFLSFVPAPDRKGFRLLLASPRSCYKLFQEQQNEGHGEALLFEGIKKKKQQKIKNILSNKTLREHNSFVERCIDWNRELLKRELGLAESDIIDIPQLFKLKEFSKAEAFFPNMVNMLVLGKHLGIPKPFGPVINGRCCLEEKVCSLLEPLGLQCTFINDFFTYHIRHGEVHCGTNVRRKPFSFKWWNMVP

In general, pIC50 refers to the IC50 on a negative log10 scale, so that one unit is a factor of ten. In the case of `COc1cc(C(=O)N2CCC[C@@H](N)C2)cc2nc(-c3cc4ccc([C@@H](C)NC(=O)C56CC(F)(C5)C6)nc4n3CC3CC3)n(C)c12` [Example 122, N-((R)-1-(2-(5-((R)-3-aminopiperidine-1-carbonyl)-7-methoxy-1-methyl-1H-benzo[d]imidazol-2-yl)-1-(cyclopropylmethyl)-1H-pyrrolo[2,3-b]pyridin-6-yl)ethyl)-3-fluorobicyclo[1.1.1]pentane-1-carboxamide], the pIC50 under setting [1] was 7.03.

As to `COc1cc(C(=O)N2CCC[C@@H](N)C2)cc2nc(-c3cc4ccc([C@@H](C)NC(=O)c5ccccc5)nc4n3CC3CC3)n(C)c12` [Example 124, N-((R)-1-(2-(5-((R)-3-aminopiperidine-1-carbonyl)-7-methoxy-1-methyl-1H-benzo[d]imidazol-2-yl)-1-(cyclopropylmethyl)-1H-pyrrolo[2,3-b]pyridin-6-yl)ethyl)benzamide], the pIC50 under setting [1] is 7.26.

As for `COc1cc(C(=O)N2CCC[C@@H](N)[C@H]2C)cc2nc(-c3cc4ccc(N(C)S(C)(=O)=O)nc4n3CC3CC3)n(CC3CC3)c12` [Example 24, N-(2-(5-((2R,3R)-3-amino-2-methylpiperidine-1-carbonyl)-1-(cyclopropylmethyl)-7-methoxy-1H-benzo[d]imidazol-2-yl)-1-(cyclopropylmethyl)-1H-pyrrolo [2,3-b]pyridin-6-yl)-N-methylmethanesulfonamide], the pIC50 under setting [1] is 6.91.

For `COc1cc(C(=O)N2[C@H]3CC[C@@H]2[C@H](N)C3)cc2nc(-c3cc4ccc([C@@H](C)NC(=O)C5CC(F)(F)C5)nc4n3CC3CC3)n(C)c12` [Example 204, N-((R)-1-(2-(5-((1R,2R,4S)-2-amino-7-azabicyclo[2.2.1]heptane-7-carbonyl)-7-methoxy-1-methyl-1H-benzo[d]imidazol-2-yl)-1-(cyclopropylmethyl)-1H-pyrrolo[2,3-b]pyridin-6-yl)ethyl)-3,3-difluorocyclobutane-1-carboxamide], the pIC50 under setting [1] is 7.32.

As for `COc1cc(C(=O)N2C[C@H](N)CCN2C)cc2nc(-c3cc4ccc([C@@H](C)NC(=O)c5ncccc5C)nc4n3CC3CC3)n(C)c12` [Example 175, N-((R)-1-(2-(5-((R)-5-amino-2-methylhexahydropyridazine-1-carbonyl)-7-methoxy-1-methyl-1H-benzo[d]imidazol-2-yl)-1-(cyclopropylmethyl)-1H-pyrrolo[2,3-b]pyridin-6-yl)ethyl)-3-methylpicolinamide], under setting [1], the pIC50 was 6.86.

Turning to `COc1cc(C(=O)N2C[C@H](N)[C@@H]3CC[C@H]2C3)cc2nc(-c3cc4ccc([C@@H](C)NC(=O)[C@H]5CC5(F)F)nc4n3CC3CC3)n(C)c12` [Example 312, (R)-N-((R)-1-(2-(5-((1S,4R,5R)-4-amino-2-azabicyclo[3.2.1]octane-2-carbonyl)-7-methoxy-1-methyl-1H-benzo[d]imidazol-2-yl)-1-(cyclopropylmethyl)-1H-pyrrolo[2,3-b]pyridin-6-yl)ethyl)-2,2-difluorocyclopropane-1-carboxamide], the pIC50 (recombinant PAD4 5 nM, 2 mM calcium chloride, 3 mM BAEE substrate) was 7.25.

`COc1cc(C(=O)N2C[C@H](N)CCN2C)cc2nc(-c3cc4ccc([C@@H](C)NC(=O)c5ccccc5)nc4n3CC3CC3)n(C)c12` [Example 154, N-((R)-1-(2-(5-((R)-5-amino-2-methylhexahydropyridazine-1-carbonyl)-7-methoxy-1-methyl-1H-benzo[d]imidazol-2-yl)-1-(cyclopropylmethyl)-1H-pyrrolo[2,3-b]pyridin-6-yl)ethyl)benzamide]: the pIC50 under setting [1] is 7.05.

Consider `COc1cc(C(=O)N2[C@H]3CC[C@@H]2[C@H](N)C3)cc2nc(-c3cc4ccc([C@@H](C)NC(=O)C5(OC)CCC5)cc4n3CC3CC3)n(C)c12` [Example 141, N-((R)-1-(2-(5-((1R,2R,4S)-2-amino-7-azabicyclo[2.2.1]heptane-7-carbonyl)-7-methoxy-1-methyl-1H-benzo[d]imidazol-2-yl)-1-(cyclopropylmethyl)-1H-indol-6-yl)ethyl)-1-methoxycyclobutane-1-carboxamide], for which the pIC50 under setting [1] is 7.20.

On to `COc1cc(C(=O)N2C[C@H](N)[C@@H]3CC[C@H]2C3)cc2nc(-c3cc4ccc([C@@H](C)NC(=O)c5ccc(Cl)nc5)nc4n3CC3CC3)n(C)c12` [Example 225, N-((R)-1-(2-(5-((1S,4R,5R)-4-amino-2-azabicyclo[3.2.1]octane-2-carbonyl)-7-methoxy-1-methyl-1H-benzo[d]imidazol-2-yl)-1-(cyclopropylmethyl)-1H-pyrrolo[2,3-b]pyridin-6-yl)ethyl)-6-chloronicotinamide], for which the pIC50 under setting [1] is 7.32.

For `COc1cc(C(=O)N2C[C@H](N)[C@@H]3CC[C@H]2C3)cc2nc(-c3cc4ccc([C@@H](C)NC(=O)c5cnn(C(F)F)c5)nc4n3CC3CC3)n(C)c12` [Example 224, N-((R)-1-(2-(5-((1S,4R,5R)-4-amino-2-azabicycIo[3.2.1]octane-2-carbonyl)-7-methoxy-1-methyl-1H-benzo[d]imidazol-2-yl)-1-(cyclopropylmethyl)-1H-pyrrolo[2,3-b]pyridin-6-yl)ethyl)-1-(difluoromethyl)-1H-pyrazole-4-carboxamide], the pIC50 under setting [1] is 7.32.

For the compound `COc1cc(C(=O)N2[C@@H]3CC[C@@H](N)[C@H]2CC3)cc2nc(-c3cc4ccc(N(C(F)F)S(C)(=O)=O)nc4n3CC3CC3)n(C3CC3)c12` [Example 50, N-(2-(5-((1R,2R,5R)-2-amino-8-azabicyclo[3.2.1]octane-8-carbonyl)-1-cyclopropyl-7-methoxy-1H-benzo[d]imidazol-2-yl)-1-(cyclopropylmethyl)-1H-pyrrolo [2,3-b]pyridin-6-yl)-N-(difluoromethyl) methanesulfonamide], the negative logarithm of the IC50 (pIC50) under setting [1] is 6.84.

Regarding `COc1cc(C(=O)N2[C@H]3CC[C@@H]2[C@H](N)C3)cc2nc(-c3cc4ccc([C@@H](C)NC(=O)c5c(F)cccc5F)cc4n3CC3CC3)n(C3CC3)c12` [Example 148, N-((R)-1-(2-(5-((1R,2R,4S)-2-amino-7-azabicyclo[2.2.1]heptane-7-carbonyl)-1-cyclopropyl-7-methoxy-1H-benzo[d]imidazol-2-yl)-1-(cyclopropylmethyl)-1H-indol-6-yl)ethyl)-2,6-difluorobenzamide], the pIC50 under setting [1] is 6.91.

With `CS(=O)(=O)N(c1ccc2cc(-c3nc4cc(C(=O)N5[C@@H]6CC[C@@H](N)[C@H]5CC6)ccc4n3C3CC3)n(CC3CC3)c2n1)C(F)F` [Example 56, N-(2-(5-((1R,2R,5R)-2-amino-8-azabicyclo[3.2.1]octane-8-carbonyl)-1-cyclopropyl-1H-benzo[d]imidazol-2-yl)-1-(cyclopropylmethyl)-1H-pyrrolo[2,3-b]pyridin-6-yl)-N-(difluoromethyl) methanesulfonamide], the pIC50 under setting [1] was 7.44.

Take `COc1cc(C(=O)N2CCCC3(CCCCN3)C2)cc2nc(-c3cc4ccc(N(C(F)F)S(C)(=O)=O)nc4n3CC3CC3)n(C)c12` (stereo not drawn) [Example 68, N-(1-(cyclopropylmethyl)-2-(7-methoxy-1-methyl-5-(1,8-diazaspiro[5.5]undecane-8-carbonyl)-1H-benzo[d]imidazol-2-yl)-1H-pyrrolo[2,3-b]pyridin-6-yl)-N-(difluoromethyl) methanesulfonamide]: the pIC50 under setting [1] is 4.30.

Consider `COc1cc(C(=O)N2CC3(CCCN3)C2)cc2nc(-c3cc4ccc(N(C(F)F)S(C)(=O)=O)nc4n3CC3CC3)n(C)c12` [Example 77, N-(1-(cyclopropylmethyl)-2-(7-methoxy-1-methyl-5-(2,5-diazaspiro[3.4]octane-2-carbonyl)-1H-benzo[d]imidazol-2-yl)-1H-pyrrolo[2,3-b]pyridin-6-yl)-N-(difluoromethyl) methanesulfonamide], for which the pIC50 under setting [1] was 4.30.

Values taken from patent US11878965B2, “Inhibitors of peptidylarginine deiminases” (Gilead Sciences, Inc., priority 2020, dated 2024).
